Assay results taken from ChEMBL document CHEMBL4145569, “Hypoxia-Protective Azaphilone Adducts from Peyronellaea glomerata” (J Nat Prod, 2018).

Tests used:
HUVEC [1] = assay: (§1) Protection against hypoxia/reoxygenation-induced cell injury in HUVEC assessed as late apoptotic cells at 5 uM treated 1 hr prior to hypoxia induction for 12 hrs followed by compound redosing and subsequent reoxygenation for 3 hrs by annexin-V-FITC/propidium iodide staining based flow cytometric analysis (reference value: 22.8%); assay type: functional, Homo sapiens
HUVEC [2] = assay: Protection against hypoxia/reoxygenation-induced cell injury in HUVEC assessed as cell viability at 5 uM treated 1 hr prior to hypoxia induction for 12 hrs followed by compound redosing and subsequent reoxygenation for 3 hrs by MTT assay (reference value: 35%); assay type: functional; settings: Homo sapiens, read-out: Activity
[3] = Antioxidant activity assessed as ABTS radical scavenging activity incubated for 6 mins under dark condition; assay type: functional
[4] = Antioxidant activity assessed as DPPH radical scavenging activity incubated for 30 mins under dark condition; assay type: functional
HUVEC [5] = assay: as §1, with “1” for “5”; assay type: functional, Homo sapiens

CC[C@@H](C)[C@@]12OC(=O)[C@@]3(O)C[C@@H](O1)c1c(cc(O)c(C)c1O)[C@@]23C
Activity (HUVEC [1]): 9.4% | viability at 5 µM (HUVEC [2]): 70% | EC50 [3]: 83.5 to 126 µM | EC50 [4]: 83.5 to 126 µM | Activity (HUVEC [5]): 9.8%

CC[C@@H](C)[C@]12OC(=O)[C@]3(O)C[C@H](O1)c1c(cc(O)c(C)c1O)[C@]23C
EC50 [3]: 83.5 to 126 µM | EC50 [4]: 83.5 to 126 µM
